Each block holds one compound with its values, some of them ahead of it.
Columns and labels:
[1] = Cyclic voltammetry of Mg deposition/stripping in DME; assay type: physicochemical; conditions: for deposition overpotential: 0.25-0.26 M in DME with 10 mM Me2Mg, Pt wire WE, 25 mVs^−1; for oxidative stability: in DME, with 10 mM Me2Mg, sweep to 4.75 V
Procedure: FIG. 14A: Cyclic voltammetry experiments of 0.26 M 1-[Mg(DME)3] with 10 mM of Me2Mg. WE: Pt wire; CE: Mg strip; RE: Mg strip; Scan rate: 25 mVs^−1; Cycling protocol: −0.8 V to 4.0 V, 100 cycles. FIG. 14B: Cycles 1, 25, 50, 75, 100. FIG. 14C: Coulombic efficiency cycles 1-100; Cyclic voltammetry experiments of 0.26 M 1-[Mg(DME)3] with 10 mM of Me2Mg.
FIG. 15A: Cyclic voltammetry experiments of 0.25 M 2-[Mg(DME)3] with 10 mM of Me2Mg. WE: Pt wire; CE: Mg strip; RE: Mg strip; Scan rate: 25 mVs^−1; Cycling protocol: −0.8 V to 3.8 V, 100 cycles; FIG. 15B: Cycles 1, 25, 50, 75, 100. FIG. 15C: Coulombic efficiency cycles 1-100; Cyclic voltammetry experiments of 0.25 M 2-[Mg(DME)3] with 10 mM of Me2Mg.
FIG. 20: Cyclic voltammetry experiments of 0.26 M 1-[Mg(DME)3] in DME.WE: Pt wire; CE: Mg strip; RE: Mg strip; Scan rate: 25 mVs^−1; Cycling protocol: −0.8 V to 4.0 V, 200 cycles.
Cyclic voltammetry experiments of 1-[Mg(DME)3] were run in an empty N2-filled glovebox fitted with a purifier system that consists of a purifier cartridge (ca. 50% activated 4 Å molecular sieves and activated Cu catalyst) and a circulator fan, no solvent or chemicals were stored in the glovebox. Electrolyte solutions were prepared in a separate glovebox by dissolving 1-[Mg(DME)3] in 500 μL of DME and stirred with a new Teflon stir bar until complete dissolution. DME and 1-[Mg(DME)3] were only used with the glovebox circulation purifier turned off after extensive (minimum 20 minutes at […] above atmospheric pressure to ensure full atmosphere exchange) purging of the glovebox atmosphere to avoid cross-contamination with other atmospheric solvents. Upon complete dissolution of the electrolyte, the electrolyte solution was sealed and transported to the electrochemistry glovebox immediately before electrochemical experiments were performed.
Mg electrodes (99.9%, MTI) were polished with a razor blade immediately before use. Pt electrodes (wire, 0.5 mm diameter, 99.995%, Thermo Scientific) were soaked in concentrated HNO3 for at least 72 hours, rinsed with deionized water at least thrice, annealed with an H2 torch, and immediately brought into the glovebox in a flame-dried 20 mL scintillation vial while hot. Cyclic voltammetry experiments of 1-[Mg(DME)3] were performed in glass cells with 0.5 mL of electrolyte. A Pt wire served as the working electrode (WE), and Mg foils were the counter and reference electrodes (CE and RE). Experiments of 1-[Mg(DME)3] were conducted on either a Biologic SP150 potentiostat or a Biologic VSP-300 potentiostat.

[2] = Cyclic and linear sweep voltammetry of 0.1 M tetra-n-butylammonium salts in MeCN (electrochemical stability window); assay type: physicochemical
Description: FIG. 12: Cyclic voltammetry and linear sweep voltammetry experiments of 0.1 M 1-[Bu4N] and [Bu4N][PF6] in MeCN; Current shown were normalized to the highest current in each experiment; FIG. 12A: Cyclic voltammogram of 1-[Bu4N] in MeCN; WE: Glassy carbon; CE: Pt wire; RE: Ag wire; scan rate=100 mVs^−1; FIGS. 12B and 12C: Linear sweep voltammograms of 0.1 M 1-[Bu4N] and [Bu4N][PF6] in MeCN; WE: Glassy carbon; CE: Pt wire; RE: Ag wire; scan rate=50 mVs^−1.
Linear sweep voltammetry experiments of 1-[Bu4N] and [Bu4N][PF6] were performed under an N2 atmosphere using a Pine Instrument Company AFCBP1 bipotentiostat using the AfterMath software package. Linear sweep voltammograms were recorded in the glovebox at 25° C. with an auxiliary Pt-coil counter electrode, Ag-wire reference electrode, and 3.0 mm glassy carbon working electrode (BASI). The electrolyte solution was 0.1 M of the corresponding tetra-n-butylammonium salt in MeCN. All reported values are referenced to an internal ferrocene/ferrocenium couple.

[3] = calculated, literature ref. 47; cited from earlier work
[4] = C2H4/CO copolymerization trials with cationic Pd catalyst
Procedure: In a N2 glovebox, Pd catalyst (10 μmol) was dissolved in toluene (10 mL) was transferred to a Fisher-Porter vessel. The reactor was removed from the glovebox and connected to a C2H4/CO gas feed. The N2 atmosphere was replaced with a 1:1 mixture of C2H4/CO (flow rate 300 sccm for each gas) by pressurizing the vessel to 100 psi and venting 3×. After pressurizing to 100 psi, polymerization was run for 3 hr at RT. The reaction was quenched upon exposure to air, and the polymer was precipitated by stirring with acidic methanol (0.6 mL HCl/10 mL MeOH). The polymer was collected and dried under vacuum overnight.
NMRs were recorded in a mixture of 1, 1, 1, 3, 3, 3-hexafluoro-2-propanol and C6D6 (4:1) at RT.

[5] = Solubility determination by 19F NMR with fluorobenzene internal standard
Procedure: Each sample was filtered, and 600 μL was transferred to a new vial. Fluorobenzene (5 μL) was added as an internal standard to the filtered solution and mixed thoroughly via pipette.

[6] = 0.1 M Bu4N salt in MeCN, glassy carbon WE
[7] = 10 μmol Pd catalyst in toluene, 100 psi 1:1 C2H4/CO, 3 hr at RT

deposition overpotential [1]: ca. −420 mV vs. Mg/Mg^2+
reductive overpotential, stabilized over continuous cycling ([1]; 0.26 M in DME, absence of Me2Mg): ca. 400 mV
coulombic efficiency, stabilized with cycling ([1]; 0.26 M in DME, absence of Me2Mg, −0.8 to 2.0 V vs. Mg/Mg^2+): ca. 96%
Compound: COCCOC.COCCOC.COCCOC.C[Si-]12(OC(C(F)(F)F)(C(F)(F)F)C(C(F)(F)F)(C(F)(F)F)O1)OC(C(F)(F)F)(C(F)(F)F)C(C(F)(F)F)(C(F)(F)F)O2.C[Si-]12(OC(C(F)(F)F)(C(F)(F)F)C(C(F)(F)F)(C(F)(F)F)O1)OC(C(F)(F)F)(C(F)(F)F)C(C(F)(F)F)(C(F)(F)F)O2.[Mg+2] [1-[Mg(DME)3], [Mg(DME)3][^MeSi^F24]2]

Compound: F[P-](F)(F)(F)(F)F [PF6^−, reference compound]
reductive stability [2, 6]: ca. −3.1 V vs. Fc/Fc^+

Compound: [F][Sb]([F])([F])([F])[F] [SbF5]
fluoride affinity [3]: 120 kcal/mol

Compound: CC#N.FC(F)(F)c1cc([B-](c2cc(C(F)(F)F)cc(C(F)(F)F)c2)(c2cc(C(F)(F)F)cc(C(F)(F)F)c2)c2cc(C(F)(F)F)cc(C(F)(F)F)c2)cc(C(F)(F)F)c1.[CH3][Pd+]1[PH](c2ccccc2)(c2ccccc2)CC[PH]1(c1ccccc1)c1ccccc1 [[Pd(dppe)(NCMe)Me]^+[BAr^F24]^−, [Pd(dppe)(NCMe)Me][BAr^F24], reference compound]
Activity [4, 7]: 2.28 g/mmol/h
Polymer Yield [4, 7]: 68.6
Activity ([4]; 100 psi of C2H4/CO): 2.3 g/mmol/h

oxidative stability [1]: ca. 4.2 V vs. Mg/Mg^2+
oxidative stability (stable up to) [2, 6]: up to 4.5 V vs. Fc/Fc^+
reductive stability [2, 6]: ca. −3.1 V vs. Fc/Fc^+
electrochemical stability window ([2]; in MeCN): 7.5 V
oxidative stability surpassing that of PF6^− ([2]; in MeCN, versus [Bu4N][PF6]): ca. 1 V
Compound: C[Si-]12(OC(C(F)(F)F)(C(F)(F)F)C(C(F)(F)F)(C(F)(F)F)O1)OC(C(F)(F)F)(C(F)(F)F)C(C(F)(F)F)(C(F)(F)F)O2 [[^MeSi^F24]]

Compound: (MeCN)Si(O2C6F12)2
fluoride affinity [3]: 113 kcal/mol

electrochemical stability window ([2]; in MeCN): ca. 7.5 V
Compound: [Bu4N][^MeSi^F24] [1-[Bu4N]]

solubility in CH2Cl2 (in words) ([5]; CH2Cl2): high solubility
solubility in benzene ([5]; in benzene, stirred 16 hr, filtered, 19F NMR): 100 µM
solubility in dichloromethane ([5]; in dichloromethane, 19F NMR): 400 µM
Compound: [K][^tBu2ArSi^F24] [3-[K]]

deposition overpotential [1]: ca. −350 mV vs. Mg/Mg^2+
oxidative stability [1]: ca. 4.05 V vs. Mg/Mg^2+
Compound: [Mg(DME)3][^PhSi^F24]2 [2-[Mg(DME)3]]

Compound: [Pd(dppe)(NCMe)Me][^tBu2ArSi^F24] [3-[Pd(dppe)(NCMe)Me]]
Activity [4, 7]: 1.67 g/mmol/h
Polymer Yield [4, 7]: 50.2
Activity ([4]; 100 psi of C2H4/CO): 1.7 g/mmol/h

Compound: [Pd(dppe)(NCMe)Me]^+[^MeSi^F24]
Activity [4, 7]: 1.06 g/mmol/h
Polymer Yield [4, 7]: 31.9

Reference: US20250149635A1, “SILICATE PLATFORM AS WEAKLY-COORDINATING ANIONS FOR DIVERSE ORGANOMETALLIC TRANSFORMATIONS AND ELECTROCHEMICAL APPLICATIONS” (California Institute of Technology, priority 2023, published 2025)
